Assay results published in the supplement of paper PMC10307832.

Compound: Nc1ccn([C@@H]2O[C@H](CO)[C@@H](O)C2(F)F)c(=O)n1 [Gemcitabine]
Assay: relative viability (nuclei count vs DMSO), 5 days (fraction); higher = more cells survive
How it was run: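 Acceptance criteria were a control CV below 25% and at least one doubling per plate. Lung cancer cell lines in 1536-well plates got five library-drug doses (not always all listed) √10 apart by pinning and were left 5 days with no medium change. Viability divides treated-well nuclei by vehicle-well nuclei and is the median across plates. Nuclei were counted by MetaXpress from 4× Hoechst images.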

Cell Line | relative viability (0.001 µM) | relative viability (0.003162 µM) | relative viability (0.01 µM) | relative viability (0.03162 µM) | relative viability (0.1 µM)
HOP-62 | 0.923 | 0.855 | 0.176 | 0.103 | 0.0838
NCI-H1915 | 0.981 | 1.03 | 0.98 | 0.865 | 0.475
NCI-H3122 | 0.975 | 1.04 | 0.913 | 0.214 | 0.14
NCI-H1651 | 0.987 | 0.955 | 0.929 | 0.285 | 0.141
EBC-1 | 0.791 | 0.235 | 0.174 | 0.138 | 0.142
NCI-H838 | 0.987 | 1.15 | 1.05 | 0.467 | 0.153
NCI-H596 | 1.32 | 0.929 | 0.564 | 0.31 | 0.283
SK-LU-1 | 1.01 | 0.479 | 0.243 | 0.191 | 0.228
NCI-H441 | 0.993 | 0.63 | 0.292 | 0.13 | 0.139
NCI-H650 | 0.878 | 0.316 | 0.195 | 0.157 | 0.165
SK-MES-1 | 0.945 | 0.473 | 0.216 | 0.203 | 0.17
NCI-H1792 | 1.06 | 0.43 | 0.165 | 0.127 | 0.0999
NCI-H1355 | 0.987 | 0.818 | 0.392 | 0.187 | 0.152
SW 1573 | 0.911 | 0.736 | 0.239 | 0.101 | 0.0671
A549 | 1.03 | 0.894 | 0.0734 | 0.0244 | 0.0209
NCI-H2347 | 1 | 0.915 | 0.68 | 0.492 | 0.381
LCLC-97TM1 | 0.909 | 0.455 | 0.139 | 0.0859 | 0.0792
EMC-BAC-2 | 0.89 | 0.996 | 0.642 | 0.267 | 0.226
NCI-H1975 | 0.984 | 1.1 | 0.648 | 0.216 | 0.174

Cell Line | relative viability (0.001 µM) | relative viability (0.003162 µM) | relative viability (0.01 µM) | relative viability (0.03162 µM) | relative viability (0.1 µM)
BEN | 0.973 | 0.726 | 0.282 | 0.152 | 0.117
NCI-H1703 | 0.699 | 0.264 | 0.138 | 0.126 | 0.115
NCI-H23 | 0.898 | 0.299 | 0.144 | 0.146 | 0.139
NCI-H520 | 1.05 | 0.942 | 0.43 | 0.22 | 0.165
CAL-12T | 1.04 | 0.935 | 0.643 | 0.206 | 0.14
EPLC-272H | 1.05 | 1.01 | 0.591 | 0.113 | 0.0839
LCLC-103H | 0.933 | 1.07 | 1 | 0.769 | 0.376
NCI-H2405 | 0.995 | 0.66 | 0.533 | 0.268 | 0.211
HCC-15 | 1.04 | 1.06 | 0.941 | 0.468 | 0.108
PC-3 [JPC-3] | 1.1 | 0.779 | 0.771 | 0.36 | 0.373
NCI-H1944 | 1 | 0.995 | 0.821 | 0.496 | 0.235
HARA | 1.03 | 0.984 | 0.971 | 0.469 | 0.118
NCI-H1563 | 0.998 | 0.983 | 0.866 | 0.538 | 0.49
NCI-H2126 | 0.971 | 1 | 0.906 | 0.77 | 0.458
LXF-289 | 1.01 | 0.977 | 0.826 | 0.206 | 0.123
NCI-H460 | 1.03 | 0.963 | 0.774 | 0.0431 | 0.0112
NCI-H1395 | 0.779 | 0.594 | 0.422 | 0.365 | 0.364
NCI-H2170 | 0.99 | 0.999 | 0.86 | 0.498 | 0.158
NCI-H2009 | 1.01 | 0.746 | 0.24 | 0.167 | 0.114
